Each block holds one molecule with its values, some of them ahead of it.
Columns and labels:
[1] = Comparative test on stability: destruction experiment, related substances by HPLC; type: physicochemical
Description: The methods of destruction experiment of the Polymorph I and II of this invention (hereinafter referred to as ‘Polymorph I’ and ‘Polymorph II’) contrasting with the Polymorph A of Dasatinib prepared by the method in CN200580011916.6 (hereinafter referred to as ‘916.6 Polymorph A’) and results of stability are followed:
Oxidation destruction: 50 mg of sample weighted accurately was added into measuring flask of 100 mL, and 10 mL 30% H2O2 was added. After standing at room temperature for 2 hour, the mixture was diluted with mobile phase to scale and shook to be homogeneous, and determined by HPLC.
(§1) Acid destruction: 50 mg of sample weighted accurately was added into measuring flask of 100 mL, and 10 mL 1 mol/L HCl solution was added. After standing at 40° C. for 1 hour, an equal amount of 1 mol/L NaOH solution was added for neutralization. Then the mixture was diluted with mobile phase to scale and shook to be homogeneous, and determined by HPLC.
as §1, with “Alkali” for “Acid”, “NaOH” for “HCl”, “HCl” for “NaOH”
Illumination destruction: 50 mg of sample weighted accurately was added into measuring flask of 100 mL, dissolved and diluted with mobile phase to be the solution containing 0.5 mg Dasatinib per milliliter. After standing under illumination of 4000 lx for 6 hour, the mixture was determined by HPLC.
High temperature destruction: 50 mg of sample weighted accurately was added into measuring flask of 100 mL, dissolved and diluted with mobile phase to be the solution containing 0.5 mg Dasatinib per milliliter. After standing in homothermal water bath of 60° C. for 4 hour, the mixture was cooled and then determined by HPLC.
Related Substances Determination
HPLC conditions and system applicability: octadecylsilane bonded silica as the filler; 0.05 mol/L of potassium dihydrogen phosphate (adjusted to pH 2.5 by phosphoric acid, 0.2% triethylamine)-methanol (45:55) as the mobile phase; detection wavelength was 230 nm; the number of theoretical plates should be not less than 2000, calculated according to the peak of Dasatinib. The resolution of the peak of Dasatinib from the peaks of adjacent impurities should meet requirements.
Determination method: sample was dissolved in mobile phase to be the solution containing 0.5 mg per milliliter. 20 μL of such solution was injected into liquid chromatograph, and chromatogram was recorded until the sixfold retention time of major component peak. If there were impurities peaks in the chromatogram of sample solution, total impurities and any single impurity were calculated by normalization method on the basis of peak area.

[2] = Accelerated test (40° C. and 75% relative humidity); type: physicochemical; conditions: for Appearance / Content / Related substances: 40° C., 75% relative humidity; for Physical and chemical characteristic in accelerated test (in words): summary of six-month test
Text: The conditions and methods of related substance test involved in this invention was in accordance with HPLC (Appendix VD of Chinese Pharmacopoeia, Vol. II, (2005)).
Chromatographic conditions and system applicability:
octadecylsilane bonded silica as the filler; 0.05 mol/L of potassium dihydrogen phosphate (adjusted to pH 2.5 by phosphoric acid)-methanol (45:55) as the mobile phase; detection wavelength was 230 nm; the number of theoretical plates should be not less than 2000, calculated according to the peak area of Dasatinib. The resolution of the peak of Dasatinib from the peaks of adjacent impurities should meet requirements.
Test Method: the sample was weight and dissolved into mobile phase to be the solution containing 0.5 mg per mL, and 20 μL of this solution was taken and injected into liquid chromatography. Chromatogram was recorded until it is 6 times as the retention time of the main peak.
(§2) The raw material of Polymorph I of Dasatinib was hermetically packed in plastic bags of polyethylene film and put in thermostatic and humidostatic incubator at 40±2° C. and 75±5% relative humidity for six months. Sample was tested at the end of the 1st, 2nd, 3rd and 6th month respectively and the results were contrasted with that of the zeroth month. Results were listed in Tab. 5.
as §2, with “II” for “I”, “10.” for “5.”

[3] = Stability in water compared with polymorph A of CN200580011916.6
[4] = 1 mol/L acid destruction (HCl, 40° C., 1 hour)
[5] = 1 mol/L alkali destruction (NaOH, 40° C., 1 hour)
[6] = high temperature destruction (60° C. water bath, 4 hour, in solution)
[7] = illumination destruction (4000 lx, 6 hour, in solution)
[8] = oxidation destruction (30% H2O2, room temperature, 2 hour)

Impurity tR4.102 ([1]; 1 mol/L acid destruction): 0.02%
Impurity tR4.987 ([1]; 1 mol/L acid destruction): 0.01%
Impurity tR5.603 ([1]; 1 mol/L acid destruction): 0.02%
Total impurities [1, 4]: 0.06%
Impurity tR4.130 ([1]; 1 mol/L alkali destruction): 0.02%
Impurity tR5.089 ([1]; 1 mol/L alkali destruction): 0.01%
Impurity tR5.501 ([1]; 1 mol/L alkali destruction): 0.02%
Total impurities [1, 5]: 0.08%
Impurity tR4.113 ([1]; before destruction): 0.02%
Impurity tR5.037 ([1]; before destruction): 0.01%
Impurity tR5.535 ([1]; before destruction): 0.03%
Total impurities ([1]; before destruction): 0.07%
Impurity tR3.569 ([1]; high temperature destruction): 0.01%
Impurity tR4.120 ([1]; high temperature destruction): 0.02%
Impurity tR5.088 ([1]; high temperature destruction): 0.01%
Impurity tR5.520 ([1]; high temperature destruction): 0.02%
Total impurities [1, 6]: 0.05%
Impurity tR2.199 ([1]; illumination destruction): 0.04%
Impurity tR2.527 ([1]; illumination destruction): 0.06%
Impurity tR2.911 ([1]; illumination destruction): 0.33%
Impurity tR3.734 ([1]; illumination destruction): 0.11%
Impurity tR4.119 ([1]; illumination destruction): 0.04%
Impurity tR4.585 ([1]; illumination destruction): 0.08%
Impurity tR5.089 ([1]; illumination destruction): 0.03%
Impurity tR5.502 ([1]; illumination destruction): 0.14%
Impurity tR5.996 ([1]; illumination destruction): 0.08%
Impurity tR10.096 ([1]; illumination destruction): 0.66%
Total impurities [1, 7]: 1.28%
Impurity tR3.719 ([1]; oxidation destruction): 0.06%
Impurity tR4.108 ([1]; oxidation destruction): 0.02%
Impurity tR4.568 ([1]; oxidation destruction): 0.04%
Impurity tR5.090 ([1]; oxidation destruction): 0.01%
Impurity tR5.508 ([1]; oxidation destruction): 0.06%
Impurity tR6.467 ([1]; oxidation destruction): 0.05%
Impurity tR9.476 ([1]; oxidation destruction): 1.058%
Total impurities [1, 8]: 1.32%
Appearance ([2]; month 0): white powder
Content ([2]; month 0): 99.7%
Related substances ([2]; month 0): 0.07%
Appearance ([2]; month 1): white powder
Content ([2]; month 1): 99.6%
Related substances ([2]; month 1): 0.07%
Appearance ([2]; month 2): white powder
Content ([2]; month 2): 99.6%
Related substances ([2]; month 2): 0.08%
Appearance ([2]; month 3): white powder
Content ([2]; month 3): 99.6%
Related substances ([2]; month 3): 0.08%
Appearance ([2]; month 6): white powder
Content ([2]; month 6): 99.5%
Related substances ([2]; month 6): 0.09%
Physical and chemical characteristic in accelerated test (in words) [2]: relatively stable
Stability in water by comparison to polymorph A of CN200580011916.6 [3]: better stability in water
Structure (SMILES): Cc1nc(Nc2ncc(C(=O)Nc3c(C)cccc3Cl)s2)cc(N2CCN(CCO)CC2)n1 [Polymorph I, N-(2-chloro-6-methylphenyl)-2-[[6-[4-(2-hydroxyethyl)-1-piperazinyl]-2-methyl-4-pyrimidyl]amino]-5-thiazolformamide]

Impurity tR4.101 ([1]; 1 mol/L acid destruction): 0.01%
Impurity tR4.993 ([1]; 1 mol/L acid destruction): 0.01%
Impurity tR5.604 ([1]; 1 mol/L acid destruction): 0.02%
Total impurities [1, 4]: 0.06%
Impurity tR3.580 ([1]; 1 mol/L alkali destruction): 0.01%
Impurity tR4.131 ([1]; 1 mol/L alkali destruction): 0.02%
Impurity tR5.092 ([1]; 1 mol/L alkali destruction): 0.01%
Impurity tR5.512 ([1]; 1 mol/L alkali destruction): 0.02%
Impurity tR9.424 ([1]; 1 mol/L alkali destruction): 0.01%
Total impurities [1, 5]: 0.08%
Impurity tR4.114 ([1]; before destruction): 0.02%
Impurity tR5.049 ([1]; before destruction): 0.01%
Impurity tR5.473 ([1]; before destruction): 0.02%
Total impurities ([1]; before destruction): 0.06%
Impurity tR3.567 ([1]; high temperature destruction): 0.01%
Impurity tR4.117 ([1]; high temperature destruction): 0.01%
Impurity tR5.085 ([1]; high temperature destruction): 0.01%
Impurity tR5.507 ([1]; high temperature destruction): 0.02%
Total impurities [1, 6]: 0.06%
Impurity tR2.197 ([1]; illumination destruction): 0.05%
Impurity tR2.526 ([1]; illumination destruction): 0.05%
Impurity tR2.910 ([1]; illumination destruction): 0.02%
Impurity tR3.733 ([1]; illumination destruction): 0.11%
Impurity tR4.116 ([1]; illumination destruction): 0.04%
Impurity tR4.582 ([1]; illumination destruction): 0.07%
Impurity tR5.084 ([1]; illumination destruction): 0.02%
Impurity tR5.496 ([1]; illumination destruction): 0.15%
Impurity tR5.990 ([1]; illumination destruction): 0.06%
Impurity tR10.084 ([1]; illumination destruction): 0.78%
Total impurities [1, 7]: 1.36%
Impurity tR4.393 ([1]; oxidation destruction): 0.02%
Impurity tR4.567 ([1]; oxidation destruction): 0.03%
Impurity tR5.090 ([1]; oxidation destruction): 0.01%
Impurity tR5.510 ([1]; oxidation destruction): 0.07%
Impurity tR6.468 ([1]; oxidation destruction): 0.04%
Impurity tR9.486 ([1]; oxidation destruction): 1.00%
Total impurities [1, 8]: 1.19%
Appearance ([2]; month 0): white powder
Content ([2]; month 0): 99.8%
Related substances ([2]; month 0): 0.06%
Appearance ([2]; month 1): white powder
Content ([2]; month 1): 99.7%
Related substances ([2]; month 1): 0.07%
Appearance ([2]; month 2): white powder
Content ([2]; month 2): 99.8%
Related substances ([2]; month 2): 0.08%
Appearance ([2]; month 3): white powder
Content ([2]; month 3): 99.6%
Related substances ([2]; month 3): 0.07%
Appearance ([2]; month 6): white powder
Content ([2]; month 6): 99.6%
Related substances ([2]; month 6): 0.08%
Physical and chemical characteristic in accelerated test (in words) [2]: of relative stability
Stability in water by comparison to polymorph A of CN200580011916.6 [3]: better stability in water
Structure (SMILES): Cc1nc(Nc2ncc(C(=O)Nc3c(C)cccc3Cl)s2)cc(N2CCN(CCO)CC2)n1 [Polymorph II, N-(2-chloro-6-methylphenyl)-2-[[6-[4-(2-hydroxyethyl)-1-piperazinyl]-2-methyl-4-pyrimidyl]amino]-5-thiazolformamide]

From US8884013B2, “Polymorphs of Dasatinib, preparation methods and pharmaceutical compositions thereof” (Nan Jing Cavendish Bio-Engineering Technology Co., Ltd., priority 2010, dated 2014)
